Where two headings read alike, the source gives them in different places.
Key:
VchCA-α [1] = molecular target: T1, VchCA-α (Vibrio cholerae, UniProt Q9KMP6); experiment: biochemical
T1 construct: gene VC_A0274

VchCA-β [2] = molecular target: T2, VchCA-β (Vibrio cholerae, UniProt A0A086SLX8); experiment: biochemical
T2 construct: gene can

BpsCA-β [3] = molecular target: T3, BpsCA-β (Burkholderia pseudomallei, UniProt Q63Y17); experiment: biochemical
T3 construct: gene BPSL0372

Rv3273-β [4] = molecular target: T4, Rv3273-β (Mycobacterium tuberculosis, UniProt P96878); experiment: biochemical
T4 sequence (P96878 540-764 limits assumed): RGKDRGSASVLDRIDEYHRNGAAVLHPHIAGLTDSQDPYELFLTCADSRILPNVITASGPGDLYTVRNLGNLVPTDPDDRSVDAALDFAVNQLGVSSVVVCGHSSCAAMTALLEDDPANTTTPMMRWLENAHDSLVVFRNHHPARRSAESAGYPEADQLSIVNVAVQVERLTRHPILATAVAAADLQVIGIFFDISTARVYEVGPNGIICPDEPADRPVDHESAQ

BpsCA-γ = molecular target: T5, BpsCA-γ; type: biochemical, Burkholderia pseudomallei
T5 construct: gene BpsCA-gamma

Rv3273-β [5] = molecular target: T4, Rv3273-β; experiment: biochemical; remark: listed apart in the source
StCA2-β = molecular target: T6, StCA2-β; experiment: stopped-flow CO2 hydration assay; type: biochemical, Salmonella enterica subsp. enterica serovar Typhimurium; settings: CO2 1.7-17 mM; pH 8.3 TRIS; 20 mM Na2SO4; 15 min preincubation, room temperature
T6 construct: recombinant, obtained in-house; construct not described

VchCA-β [6] = molecular target: T2, VchCA-β; experiment: biochemical; remark: listed apart in the source
BpsCA-β [7] = molecular target: T3, BpsCA-β; experiment: biochemical; remark: listed apart in the source
VchCA-α [8] = molecular target: T1, VchCA-α; experiment: biochemical; remark: listed apart in the source

T2 sequence (A0A086SLX8 1-222): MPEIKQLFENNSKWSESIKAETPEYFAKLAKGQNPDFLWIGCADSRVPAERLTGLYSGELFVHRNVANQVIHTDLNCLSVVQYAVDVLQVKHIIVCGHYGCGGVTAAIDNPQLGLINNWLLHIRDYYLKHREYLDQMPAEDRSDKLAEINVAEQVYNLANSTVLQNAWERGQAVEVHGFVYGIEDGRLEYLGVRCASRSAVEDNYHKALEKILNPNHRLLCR
T1 sequence (Q9KMP6 21-239 limits assumed): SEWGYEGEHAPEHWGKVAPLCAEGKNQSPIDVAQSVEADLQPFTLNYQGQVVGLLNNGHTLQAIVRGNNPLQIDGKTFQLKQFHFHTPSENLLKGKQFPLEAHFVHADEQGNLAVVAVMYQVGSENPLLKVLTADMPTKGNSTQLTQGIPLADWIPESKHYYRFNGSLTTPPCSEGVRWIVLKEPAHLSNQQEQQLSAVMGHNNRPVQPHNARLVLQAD
T3 sequence (Q63Y17 1-256): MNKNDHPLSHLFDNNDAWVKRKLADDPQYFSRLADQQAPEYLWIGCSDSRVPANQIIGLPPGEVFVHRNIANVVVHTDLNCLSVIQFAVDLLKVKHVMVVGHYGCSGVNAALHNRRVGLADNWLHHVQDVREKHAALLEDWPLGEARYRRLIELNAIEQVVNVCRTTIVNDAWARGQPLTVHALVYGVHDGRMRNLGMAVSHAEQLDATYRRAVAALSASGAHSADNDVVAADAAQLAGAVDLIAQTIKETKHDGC

Row | Compound | Ki (VchCA-α [1]) | Ki (VchCA-β [2]) | Ki (BpsCA-β [3]) | Ki (Rv3273-β [4]) | Ki (StCA2-β) | Ki (VchCA-β [6]) | Ki (VchCA-α [8]) | further results
1 | Cc1ccc([Se]CC(=O)Nc2ccc(S(N)(=O)=O)cc2)cc1 [7b] | 7.7 nM | 762 nM | > 10000 nM | 283 nM | – | – | – | –
2 | CC(O)CSCC(=O)Nc1ccc(S(N)(=O)=O)cc1 (stereo not drawn) [3e] | 44.7 nM | 6650 nM | > 10000 nM | – | – | – | – | Ki (BpsCA-γ): 322 nM; Ki (Rv3273-β [5]): 214 nM
3 | NS(=O)(=O)c1ccc(C[Se]c2ccc(NC(=O)CSc3ccc(Br)cc3)cc2)cc1 [5b] | 45.8 nM | 581 nM | > 10000 nM | > 10000 nM | 8.2 nM | – | – | –
4 | NS(=O)(=O)c1ccc(NC(=O)C[Se]c2ccccc2)cc1 [7a] | – | – | – | – | – | 96.3 nM | 2.2 nM | Ki (BpsCA-β [7]): 4090 nM; Ki (BpsCA-γ; CO2 1.7-17 mM, buffer pH for γ-CA not stated, 20 mM Na2SO4, 15 min preincubation, room temperature): 304 nM; Ki (Rv3273-β [5]): 203 nM
5 | COc1ccc([Se]CC(=O)Nc2ccc([Se]Cc3ccc(S(N)(=O)=O)cc3)cc2)cc1 [9d] | 8.9 nM | – | > 10000 nM | > 10000 nM | 7.5 nM | 82.9 nM | – | –
6 | NS(=O)(=O)c1ccc(CCNC(=O)C[Se]c2ccccc2)cc1 [8a] | 44.4 nM | 6590 nM | > 10000 nM | 1500 nM | – | – | – | –
7 | Cc1ccc(S(=O)(=O)N[C@H](C[Se]CC(=O)NCCc2ccc(S(N)(=O)=O)cc2)C(C)C)cc1 [8d] | 62.3 nM | 828 nM | > 10000 nM | > 10000 nM | – | – | – | –
8 | Cc1ccccc1[Se]CC(=O)Nc1ccc(S(N)(=O)=O)cc1 [7c] | – | – | – | – | – | – | – | Ki (VchCA-α [1]; read-out: VchCA-α, inhibitor): 41.7 nM; Ki (VchCA-β [2]; read-out: VchCA-β, inhibitor): 6210 nM; Ki (BpsCA-β [3]; read-out: BpsCA-β, inhibitor): > 10000 nM; Ki (Rv3273-β [4]; read-out: Rv3273-β, inhibitor): > 10000 nM
9 | COc1ccc([Se]CC(=O)NCCc2ccc(S(N)(=O)=O)cc2)cc1 [8c] | – | – | > 10000 nM | > 10000 nM | – | 85 nM | 3.2 nM | –
10 | C=C(C)[C@H]1CCC(C)(O)C([Se]CC(=O)NCCc2ccc(S(N)(=O)=O)cc2)C1 (stereo partly drawn) [8e] | – | 309 nM | > 10000 nM | > 10000 nM | 8.9 nM | – | 6.1 nM | –

From article PMC7014678 (International Journal of Molecular Sciences, 2020)
